Measured values published in US6936572B2, “Agrochemical formulation aid composition and uses thereof” (Adjuvants Plus Inc., priority 2000, dated 2005).
Read-outs that look alike come from different tables or passages of the source.

How the values were obtained:
[1] = test system: various annual and perennial weeds; details: 21 DAT; spray volume of 200 l/ha; different rates; two fields
Method: (§1) The results shown in Table 3 were obtained by applying the mixture of dicamba technical acid (87%) and the formulation aid to two fields infected with various annual and perennial weeds (indicated in Table 3). The experiments were conducted between the period of September 1998 to August 2000.

Lambsquarters [2] = details: 21 DAT, spray volume 200 l/ha
Method: as §1

Pig Weed [3] = details: 21 DAT, spray volume 200 l/ha
Method: as §1

[4] = test system: various annual and perennial weeds; experiment: Field weed control overall, glyphosate technical acid (Example 2); format: in vivo; details: 21 DAT; different rates; 10 fields
Method: (§2) Prior to any preparation all spray-mixing and application equipment were cleaned thoroughly by observing cleaning directions provided on the agrochemical labeling and accompanying materials provided by the maker. Half of the required water was placed in a spray tank. A required amount of the formulation aid was added in the spray tank for the required rate of glyphosate application as indicated in Table 1. […] Mixing was continued and remainder of the water was added to the spray tank. Mixing was: continued for another 5-10 minutes. The ready to use herbicide and formulation aid mixture was applied by spraying at the required rate.
(§3) The formulation aid tested in this example contained about 21.5% by weight aromatic hydrocarbon distillate, about 3.1% by weight 2N-octanol, about 5.7% by weight oleyl-cetyl alcohol, about 3.1% by weight polyoxyethylene (8) nonylphenolethin, about 33.3% by weight polyoxyalkylated fatty alcohol, and about 33.3% by weight ethoxylated tallow amine blend.

Lambsquarters [5] = experiment: Field control of broad-spectrum weeds with glyphosate technical acid + formulation aid (Example 2); format: in vivo; details: 21 DAT
Method: as §2, §3

Sow Thistle = experiment: as above; format: in vivo; details: 21 DAT
Method: as §2, §3

Canada Thistle = experiment: as above; format: in vivo; details: 21 DAT
Method: as §2, §3

Quackgrass = experiment: as above; format: in vivo; details: 21 DAT
Method: as §2, §3

Dandelions = experiment: as above; format: in vivo; details: 21 DAT
Method: as §2, §3

Catnip = experiment: as above; format: in vivo; details: 21 DAT
Method: as §2, §3

Pig Weed [6] = experiment: as above; format: in vivo; details: 21 DAT
Method: as §2, §3

Annual grasses = experiment: as above; format: in vivo, foxtails, annual bluegrass, crabgrass, witchgrass; details: 21 DAT
Method: as §2, §3

[7] = Dicamba 0.140 Kg/ha + formulation aid 1.0 L/ha or + water
[8] = Dicamba 0.280 Kg/ha + formulation aid 1.0 L/ha or + water
[9] = glyphosate technical acid (95%) 0.24 Kg or l/ha + formulation aid 0.5 l/ha or + water
[10] = glyphosate technical acid (95%) 0.53 Kg or l/ha + formulation aid 0.5 l/ha or + water
[11] = glyphosate technical acid (95%) 0.94 Kg or l/ha + formulation aid 0.9 l/ha or + water

COc1c(Cl)ccc(Cl)c1C(=O)O [Dicamba + water, 3,6-dichloro-2-methoxybenozic acid]
weed control (in words) [1]: No weed control
Control of Lambsquarters (Lambsquarters [2]; [7]): 0%
Control of Lambsquarters (Lambsquarters [2]; [8]): 0%
Control of Pig Weed (Pig Weed [3]; [7]): 0%
Control of Pig Weed (Pig Weed [3]; [8]): 0%

O=C(O)CNCP(=O)(O)O [Glyphosate + water, N-phosphonomethylglycine]
weed control (in words) [4]: No weed control
Control of Lambsquarters (Lambsquarters [5]; [9]): 0%
Control of Lambsquarters (Lambsquarters [5]; [10]): 0%
Control of Lambsquarters (Lambsquarters [5]; [11]): 0%
Control of Sow Thistle (Sow Thistle; [9]): 0%
Control of Sow Thistle (Sow Thistle; [10]): 0%
Control of Sow Thistle (Sow Thistle; [11]): 0%
Control of Canada Thistle (Canada Thistle; [9]): 0%
Control of Canada Thistle (Canada Thistle; [10]): 0%
Control of Canada Thistle (Canada Thistle; [11]): 0%
Control of Quackgrass (Quackgrass; [9]): 0%
Control of Quackgrass (Quackgrass; [10]): 0%
Control of Quackgrass (Quackgrass; [11]): 0%
Control of Dandelions (Dandelions; [9]): 0%
Control of Dandelions (Dandelions; [10]): 0%
Control of Dandelions (Dandelions; [11]): 0%
Control of Catnip (Catnip; [9]): 0%
Control of Catnip (Catnip; [10]): 0%
Control of Catnip (Catnip; [11]): 0%
Control of Pig Weed (Pig Weed [6]; [9]): 0%
Control of Pig Weed (Pig Weed [6]; [10]): 0%
Control of Pig Weed (Pig Weed [6]; [11]): 0%
Control of Annual grasses (Annual grasses; [9]): 0%
Control of Annual grasses (Annual grasses; [10]): 0%
Control of Annual grasses (Annual grasses; [11]): 0%
